Reference: patent publication US10267796B2, “Screening methods of modulating adrenergic receptor gene expressions implicated in melanogenesis” (The Procter & Gamble Company, priority 2010, dated 2019)

How the values were obtained:
[1] = target: ADRβ1 receptors (Homo sapiens, UniProt P08588); assay: ADRβ1 receptor antagonist screening (half maximal inhibitory concentration); type: binding
Source text: Based on these inventive discoveries, a screening method for determining at least one test agent effective for modifying the appearance of pigmented skin is provided. The method comprises contacting a cell, a cell culture, or bulk cells with the test agent, wherein the cell, the cell culture, or the bulk cells comprise ADRβ1 receptors, and determining based on the binding interaction of the test agent with the ADRβ1 receptors whether the test agent is an effective ADRβ1 receptor antagonist suitable for modifying the appearance of pigmented skin, wherein a test agent is considered to be an effective ADRβ1 receptor antagonist when it defines a half maximal inhibitory concentration of less than about 1000 ppm.
The method further comprises determining whether test agents are effective for improving the appearance of pigmented skin if the test agent is an antagonist of the ADRβ1 receptors. In one embodiment, the test agent may be identified as an ADRβ1 receptor antagonist if the test agent defines a half maximal inhibitory concentration (IC50) of less than about 1000 ppm. In further embodiments, the ADRβ1 receptor antagonist defines a half maximal inhibitory concentration of less than about 100 ppm, or less than about 50 ppm. By utilizing this metric of maximal inhibitory concentration, it is possible to correlate the antagonistic activity of the ADRβ1 receptor antagonists with an ability of the ADRβ1 receptor antagonists to improve the appearance of hyper-pigmented spots in human skin. In further embodiments, when the ADRβ1 receptor antagonists bind to the ADRβ1 receptors, a luminescent reference signal may be generated, which may be measured by a luminometer, a fluorescence plate reader, or a fluorometer.
As shown below in Table 2, the present inventors have further recognized that modifying a test agent from a peptide to a palmitoylated peptide greatly improves its efficacy as an ADRβ1 inhibitor.

[2] = test system: B16-F1 cells; assay: B16 cell melanin synthesis assay; type: cell-based, murine; conditions: FIG. 4; for effect on melanin synthesis (% MS): increasing concentration (w/v %)
Source text: Determining test agents suitable as ADRβ1 antagonists, ADRβ2 antagonists, or combinations thereof may utilize a melanin synthesis assay selected from the group consisting of a B16 cell assay or a skin model. The B16-F1 cells, which are murine melanoma cells obtained from American Tissue Culture Collection (ATCC), contain the synthetic machinery for melanin production and respond to some benchmark whitening/tanning agents. The following experiment depicts one exemplary method of determining the effect of test agents on melanin synthesis. In the experiment, 0.5 mL of B16-F1 cells are added to 29.5 ml of B16-F1 culture media to 2 separate T-150 flasks, and grown to near (˜80% ) confluency. The culture media B16-F1 comprises the following components as shown in Table 1 below: The cells from the T-150 flasks were trypsinized and counted with a hemacytometer. Then, cell vials (1×10^6 cell aliquots) were frozen in a mixture comprising 95% B16-F1 culture medium and 5% DMSO (Dimethyl sulfoxide) and placed in liquid Nitrogen. All cell culture reagents (except trypsin) were heated in a 37° C. water bath. On day zero, 29 mL of B16-F1 culture media was placed into a T-150 flask at 37° C. Then, a vial of the frozen cells was obtained, thawed in a 37° C. water bath, and placed in the T-150 flask. The flask was agitated to mix the cells with the media, and then the flask was incubated for 3 days at 37° C. in a humidified environment comprising 5% CO2. On day 3, the cells from the flask were trypsinized and the cell density was determined. At which point, the cells were split into a 96-well plate with 2,500 cells per well. At day 5, the cells were treated with the test agents. On day 7, the cells were assayed for melanin production and toxicity. […] As stated above, ADRβ1 and ADRβ2 stimulation result in elevated cAMP levels which drive tyrosinase production in known melanogenesis pathways.

[3] = test system: human skin explants; assay: Pigmentation gene expression in human skin explants; type: cell-based; conditions: compared with Stem Cell Factor & Endothelin (Endo-SCF), FIG. 5
Source text: FIG. 5 is a graphical illustration depicting the effect of dobutamine on human skin explants.
As stated above, ADRβ1 and ADRβ2 stimulation result in elevated cAMP levels which drive tyrosinase production in known melanogenesis pathways.

ADRβ1 receptors, sequence (P08588 whole entry): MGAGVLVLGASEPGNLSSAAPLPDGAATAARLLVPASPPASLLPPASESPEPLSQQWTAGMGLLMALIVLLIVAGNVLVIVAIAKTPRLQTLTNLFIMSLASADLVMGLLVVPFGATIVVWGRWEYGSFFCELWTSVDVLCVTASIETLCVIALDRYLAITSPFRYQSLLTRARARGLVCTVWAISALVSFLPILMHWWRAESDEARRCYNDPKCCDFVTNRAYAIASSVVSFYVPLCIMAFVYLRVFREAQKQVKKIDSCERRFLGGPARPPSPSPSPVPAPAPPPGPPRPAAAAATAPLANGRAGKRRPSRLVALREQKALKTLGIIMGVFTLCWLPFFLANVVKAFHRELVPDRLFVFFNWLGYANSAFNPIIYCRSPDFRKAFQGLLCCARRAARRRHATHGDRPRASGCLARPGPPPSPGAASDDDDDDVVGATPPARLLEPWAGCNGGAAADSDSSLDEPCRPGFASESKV

Compound | ADRβ1 IC 50 (ppm) [1] [ppm] | also measured
GHK | 1100 | 
palGHK | 3.3 | 
AcetylGHK | 45 | 
GQPR | 1200 | 
palGQPR [palmitoylated GQPR peptide] | 0.23 | 
AcetylGQPR [acetyl-modified GQPR peptide] | 45 | 
CC(CCc1ccc(O)cc1)NCCc1ccc(O)c(O)c1 (stereo not shown) [dobutamine] |  | effect on melanin synthesis (% MS) [2]: increases the melanin synthesis; pigmentation gene expression [3]: induces pigmentation gene expression in human skin explants more than the paracrine factors
CC(C)NCC(O)c1ccc(O)c(O)c1 (stereo not shown) [isoprenaline] |  | melanin synthesis (% MS) ([2]; as the concentration of isoprenaline increased): ~300%; effect on melanin synthesis (% MS) [2]: increases the melanin synthesis
